Reference: ChEMBL document CHEMBL5442379, “ASAP - SARS-CoV-2 nsp3 macrodomain single point” (2024)

Target: Replicase polyprotein 1ab (Severe acute respiratory syndrome coronavirus 2) (UniProt P0DTD1)
Description: Functional biochemical assay to identify treatments for viral infectious disease that targets SARS-COV-2 nsp3 macrodomain, whereby the mechanism of action displaces an ADP-Ribose modified peptide from the binding site. Utilizing a time-resolved fluorescence method to measure binding by reading the emitted fluorescence intensity in two wavelengths.

For `O=C(CCN(Cc1cccc(Cl)c1)C(=O)c1ccc(F)cn1)N1CCNCC1`, the inhibition (Concentration 49.75 uM, Number of replicates 2.0, Standard deviation 0.987 %) was 6.76% and the inhibition (Concentration 99.5 uM, Number of replicates 2.0, Standard deviation 1.391 %) was 6.74%.

For `CC(C)[C@@H](CCN(C)C(=O)c1nn2cccnc2c1Cl)Nc1ncnc2[nH]ccc12`, the inhibition (Concentration 49.75 uM, Number of replicates 2.0, Standard deviation 6.794 %) was 0.844% and the inhibition (Concentration 99.5 uM, Number of replicates 2.0, Standard deviation 0.494 %) was 1.65%.

For `Cc1cccc(Cl)c1S(=O)(=O)Nc1cnc2[nH]ncc2c1`, the inhibition (Concentration 50.0 uM, Number of replicates 2.0, Standard deviation 1.912 %) was -0.254%.

`O=C(Nc1cnc2[nH]ncc2c1)C1(c2ccccc2)CC1` showed an inhibition (Concentration 50.0 uM, Number of replicates 2.0, Standard deviation 8.824 %) of 3.21%.

With `CC(C)(C[C@@H]1CCCN(c2ncnc3[nH]ccc23)C1)C(N)=O` the inhibition (Concentration 50.0 uM, Number of replicates 2.0, Standard deviation 4.235 %) was -1.59%.

For `CC(C)[C@@H]1[C@H](O)CCN1c1ncnc2[nH]ccc12`, the inhibition (Concentration 49.75 uM, Number of replicates 2.0, Standard deviation 3.675 %) was 17.7% and the inhibition (Concentration 99.5 uM, Number of replicates 2.0, Standard deviation 0.827 %) was 32.1%.

`Cc1cc(CNC(=O)c2cnn3ccc(C4CCN(C(=O)c5ccccc5)CC4)cc23)n(C)n1` was tested, and the inhibition (Concentration 49.75 uM, Number of replicates 2.0, Standard deviation 3.014 %) was -5.51% and the inhibition (Concentration 99.5 uM, Number of replicates 2.0, Standard deviation 0.205 %) was -8.12%.

`CCc1n[nH]c(NC(=O)c2ccc(NC(=O)Nc3ccccc3)cc2)c1Br` was tested, and the inhibition (Concentration 49.75 uM, Number of replicates 2.0, Standard deviation 2.077 %) was -5.57% and the inhibition (Concentration 99.5 uM, Number of replicates 2.0, Standard deviation 0.313 %) was 0.467%.

With `O=C(CCN(Cc1cccc(Cl)c1)C(=O)C1(O)CCCC1)N1CCNCC1` the inhibition (Concentration 49.75 uM, Number of replicates 2.0, Standard deviation 1.82 %) was -1.21% and the inhibition (Concentration 99.5 uM, Number of replicates 2.0, Standard deviation 0.971 %) was -1.78%.

For `Nc1ncnc2c1ncn2Cc1cccc2ncnn12`, the inhibition (Concentration 49.75 uM, Number of replicates 2.0, Standard deviation 0.496 %) was -0.553% and the inhibition (Concentration 99.5 uM, Number of replicates 2.0, Standard deviation 1.809 %) was -3.16%.

In the case of `CC(C)c1nc([C@@H](C)Nc2ncnc3nc[nH]c23)cs1`, the inhibition (Concentration 49.75 uM, Number of replicates 2.0, Standard deviation 2.607 %) is reported as 2.65% and the inhibition (Concentration 99.5 uM, Number of replicates 2.0, Standard deviation 0.232 %) is reported as 3.07%.

`O=C(CCN(Cc1cccc(Cl)c1)C(=O)C1CCC(O)CC1)N1CCNCC1` (stereo not given) was tested, and the inhibition (Concentration 49.75 uM, Number of replicates 2.0, Standard deviation 4.563 %) was -4.32% and the inhibition (Concentration 99.5 uM, Number of replicates 2.0, Standard deviation 1.877 %) was 0.465%.

In the case of `O=C(Cc1ccc(F)cc1)Nc1ccc2[nH]ncc2c1`, the inhibition (Concentration 50.0 uM, Number of replicates 2.0, Standard deviation 1.625 %) is reported as 1.14%.

With `CC(C)[C@@H](Nc1ncnc2[nH]ccc12)c1nncn1C` the inhibition (Concentration 49.75 uM, Number of replicates 2.0, Standard deviation 0.565 %) was 4.59% and the inhibition (Concentration 99.5 uM, Number of replicates 2.0, Standard deviation 7.858 %) was 10.8%.

`O=C(c1cccc(Br)c1)N1CCC(c2ccn3ncc(C(=O)N4CCCCC4)c3c2)CC1` showed an inhibition (Concentration 50.0 uM, Number of replicates 2.0, Standard deviation 0.499 %) of 32.1%.

Work on `c1ccc(CN2CCO[C@@H](CNc3ncnc4nc[nH]c34)C2)cc1` yielded an inhibition (Concentration 50.0 uM, Number of replicates 2.0, Standard deviation 1.424 %) of -2.44%.

`O=C(Nc1ccc(C(=O)NCc2c(C(=O)O)[nH]c3ccccc23)cc1)NC1CC1` showed an inhibition (Concentration 50.0 uM, Number of replicates 2.0, Standard deviation 1.193 %) of 86.2%.

For `Cc1n[nH]c(C)c1C(=O)N1CCC(c2ccn3ncc(C(=O)N4CCCCC4)c3c2)CC1`, the inhibition (Concentration 49.75 uM, Number of replicates 2.0, Standard deviation 0.408 %) was 10.8% and the inhibition (Concentration 99.5 uM, Number of replicates 2.0, Standard deviation 0.015 %) was 23.3%.

`Cn1cc([C@H]2CSCCN2c2ncnc3[nH]ccc23)cn1` gave an inhibition (Concentration 49.75 uM, Number of replicates 2.0, Standard deviation 2.461 %) of -6.49% and an inhibition (Concentration 99.5 uM, Number of replicates 2.0, Standard deviation 0.732 %) of -3.46%.

For `O=C(CNc1ncnc2[nH]ccc12)N1CCc2ccccc21`, the inhibition (Concentration 50.0 uM, Number of replicates 2.0, Standard deviation 7.793 %) was 1.19%.

Compound `N[C@@H]1CCC[C@@H](C(=O)N(CCC(=O)N2CCNCC2)Cc2cccc(Cl)c2)C1` has an inhibition (Concentration 49.75 uM, Number of replicates 2.0, Standard deviation 0.617 %) of -0.755% and an inhibition (Concentration 99.5 uM, Number of replicates 2.0, Standard deviation 0.793 %) of -1.47%.

`C[C@]1(C(=O)O)CCCN1C(=O)c1ncnc2[nH]ccc12` showed an inhibition (Concentration 50.0 uM, Number of replicates 2.0, Standard deviation 5.501 %) of -5.29% and an inhibition (Concentration 100.0 uM, Number of replicates 2.0, Standard deviation 0.477 %) of 5.67%.

In the case of `CCc1nc(CN(C)c2nc(C)nc3[nH]ccc23)cs1`, the inhibition (Concentration 50.0 uM, Number of replicates 2.0, Standard deviation 3.767 %) is reported as -6.13%.

In the case of `O=C(CCN(Cc1cccc(Cl)c1)C(=O)c1c[nH]c(=O)cn1)N1CCNCC1`, the inhibition (Concentration 49.75 uM, Number of replicates 2.0, Standard deviation 1.237 %) is reported as -2.71% and the inhibition (Concentration 99.5 uM, Number of replicates 2.0, Standard deviation 0.012 %) is reported as 0.98%.

Work on `Cc1ccc2ccccc2c1-c1ncnc2[nH]ccc12` yielded an inhibition (Concentration 49.75 uM, Number of replicates 2.0, Standard deviation 3.409 %) of -5.32% and an inhibition (Concentration 99.5 uM, Number of replicates 2.0, Standard deviation 3.055 %) of -9.1%.

`CSc1cccc(NC(=O)c2ncnc3[nH]ccc23)c1` showed an inhibition (Concentration 50.0 uM, Number of replicates 2.0, Standard deviation 4.41 %) of -4.67%.

`Cc1cc(C(=O)Nc2[nH]nc3nc(O)ccc23)c2c(C)nn(C)c2n1` showed an inhibition (Concentration 50.0 uM, Number of replicates 2.0, Standard deviation 0.36 %) of -6.17% and an inhibition (Concentration 100.0 uM, Number of replicates 2.0, Standard deviation 2.675 %) of -3.32%.

In the case of `Cc1cnc(CCNc2ncnc3[nH]ncc23)c(C)c1`, the inhibition (Concentration 50.0 uM, Number of replicates 2.0, Standard deviation 4.479 %) is reported as 4.34%.

`O=C(NCCn1cncn1)c1cnn2ccc(C3CCN(C(=O)c4ccccc4)CC3)cc12` gave an inhibition (Concentration 49.75 uM, Number of replicates 2.0, Standard deviation 1.365 %) of -3.7% and an inhibition (Concentration 99.5 uM, Number of replicates 2.0, Standard deviation 1.7 %) of -2.57%.

For `CNC(=O)c1cccc(CNC(=O)c2ncnc3[nH]ccc23)c1`, the inhibition (Concentration 50.0 uM, Number of replicates 2.0, Standard deviation 1.029 %) was -5.91%.

For `O=C(Nc1ccccc1)Nc1ccc(C(=O)N2CCc3nc[nH]c3C2)cc1`, the inhibition (Concentration 49.75 uM, Number of replicates 2.0, Standard deviation 2.91 %) was -3.02% and the inhibition (Concentration 99.5 uM, Number of replicates 2.0, Standard deviation 5.124 %) was -2.38%.

Compound `O=C(c1ccnc(S)c1)N1CCC(c2ccn3ncc(C(=O)N4CCCCC4)c3c2)CC1` has an inhibition (Concentration 49.75 uM, Number of replicates 2.0, Standard deviation 0.749 %) of 20.2% and an inhibition (Concentration 99.5 uM, Number of replicates 2.0, Standard deviation 3.677 %) of 35.5%.

Work on `COc1cccc(NC(=O)c2ccc(NC(=O)Nc3ccccc3)cc2)n1` yielded an inhibition (Concentration 49.75 uM, Number of replicates 2.0, Standard deviation 3.541 %) of 4.65% and an inhibition (Concentration 99.5 uM, Number of replicates 2.0, Standard deviation 3.473 %) of 5.37%.

For `O=C(c1c[nH]nn1)N1CCC(c2ccn3ncc(C(=O)N4CCCCC4)c3c2)CC1`, the inhibition (Concentration 49.75 uM, Number of replicates 2.0, Standard deviation 0.286 %) was 14.7% and the inhibition (Concentration 99.5 uM, Number of replicates 2.0, Standard deviation 4.61 %) was 25.6%.

`CC(C)[C@@H](CO)[C@@H](Nc1ncnc2[nH]ccc12)C(C)C` was tested, and the inhibition (Concentration 49.75 uM, Number of replicates 2.0, Standard deviation 2.34 %) was 6.65% and the inhibition (Concentration 99.5 uM, Number of replicates 2.0, Standard deviation 2.712 %) was 13.1%.

In the case of `O=C(c1ccccc1)N1CCC(c2ccn3ncc(C(=O)N4CCn5ncnc5C4)c3c2)CC1`, the inhibition (Concentration 49.75 uM, Number of replicates 2.0, Standard deviation 0.529 %) is reported as -3.77% and the inhibition (Concentration 99.5 uM, Number of replicates 2.0, Standard deviation 3.194 %) is reported as -3.52%.

`Fc1ccc(Oc2cc(CNc3ncnc4nc[nH]c34)ccn2)cc1` was tested, and the inhibition (Concentration 50.0 uM, Number of replicates 2.0, Standard deviation 7.991 %) was 2.01%.

For `CCN(Cc1cccnc1)C(=O)c1ccc(NC(=O)Nc2ccccc2)cc1`, the inhibition (Concentration 49.75 uM, Number of replicates 2.0, Standard deviation 4.414 %) was 3.63% and the inhibition (Concentration 99.5 uM, Number of replicates 2.0, Standard deviation 0.745 %) was -7.09%.

With `O=C(Nc1ccccc1)Nc1ccc(C(=O)Nc2nnc(C(F)(F)F)[nH]2)cc1` the inhibition (Concentration 49.75 uM, Number of replicates 2.0, Standard deviation 1.534 %) was -3.2% and the inhibition (Concentration 99.5 uM, Number of replicates 2.0, Standard deviation 0.592 %) was -1.46%.

With `O=C(N[C@@H]1COCC[C@H]1O)c1cnn2ccc(C3CCN(C(=O)c4ccccc4)CC3)cc12` the inhibition (Concentration 49.75 uM, Number of replicates 2.0, Standard deviation 1.335 %) was -5.01% and the inhibition (Concentration 99.5 uM, Number of replicates 2.0, Standard deviation 2.833 %) was -4.48%.

For `CN(C(=O)c1cnn2ccc(C3CCN(C(=O)c4ccccc4)CC3)cc12)c1ccccc1O`, the inhibition (Concentration 49.75 uM, Number of replicates 2.0, Standard deviation 2.649 %) was 10% and the inhibition (Concentration 99.5 uM, Number of replicates 2.0, Standard deviation 4.361 %) was 15.9%.

In the case of `COc1cccc(Cl)c1CNc1ncnc2[nH]ncc12`, the inhibition (Concentration 50.0 uM, Number of replicates 2.0, Standard deviation 0.519 %) is reported as -1.83%.

`O=C(O)c1ccc2c(c1)ncn2-c1ccc(CNC(=O)c2ncnc3[nH]ccc23)cc1` was tested, and the inhibition (Concentration 99.5 uM, Number of replicates 2.0, Standard deviation 0.835 %) was -4.65%.

For `O=C(CCCc1cccnc1)Nc1cnc2[nH]ncc2c1`, the inhibition (Concentration 50.0 uM, Number of replicates 2.0, Standard deviation 5.838 %) was -3.65%.

For `O=C(NCc1cn[nH]c1)c1cnn2ccc(C3CCN(C(=O)c4ccccc4)CC3)cc12`, the inhibition (Concentration 49.75 uM, Number of replicates 2.0, Standard deviation 0.103 %) was -2.37% and the inhibition (Concentration 99.5 uM, Number of replicates 2.0, Standard deviation 3.225 %) was -4.5%.

Compound `Cc1ccc(-c2n[nH]cc2CNc2cnc3[nH]ncc3c2)o1` has an inhibition (Concentration 50.0 uM, Number of replicates 2.0, Standard deviation 33.024 %) of 7.23%.

For `O=C(CCN(Cc1cccc(Cl)c1)C(=O)C1(F)CCCCC1)N1CCNCC1`, the inhibition (Concentration 49.75 uM, Number of replicates 2.0, Standard deviation 2.579 %) was -3.58% and the inhibition (Concentration 99.5 uM, Number of replicates 2.0, Standard deviation 1.426 %) was 0.185%.

Compound `Cc1noc(CCCNC(=O)c2ncnc3[nH]ccc23)n1` has an inhibition (Concentration 50.0 uM, Number of replicates 2.0, Standard deviation 1.028 %) of -5.13%.

`CNC[C@@H]1CCCN1C(=O)c1cnn2ccc(C3CCN(C(=O)c4ccccc4)CC3)cc12` gave an inhibition (Concentration 49.75 uM, Number of replicates 2.0, Standard deviation 1.186 %) of -1.47% and an inhibition (Concentration 99.5 uM, Number of replicates 2.0, Standard deviation 2.864 %) of -2.2%.
